From patent publication US20160176769A1, “PARTICULATE NITRIFICATION INHIBITOR SYSTEMS” (Ballance Agri-Nutrients Limited, priority 2008, published 2016) come the findings set out here.

In the experiment the test system is nitrification in soil. Nature of the experiment: closed soil incubation experiment (nitrate and ammonium analyses of incubated soil). The conditions noted are these: urea approx. 200 kg N/ha, Horotiu silt loam, 20°C. The protocol: A closed soil incubation experiment was established with the three compositions or products. The beat treated DCD was added at 10 kg/ha and the DCD/P fertiliser blends were added at 10 kg DCD/ha equivalent.
A control (urea only) and 2 DCD rates (10 kg DCD/ha and 1 kg DCD/ha) were included. Ten kg/ha is a standard rate of DCD application and matches the DCD/P fertiliser rate while 1 kg/ha matches the DCD rate applied in the heat treated product which was 10% W /W DCD. All treatments received urea solution at approximately 200 kg N/ha, and were replicated three times.
The soil was a Horotiu silt loam (Yellow Brown Loam) collected to a depth of approximately 100 mm from a site on the Ruakuta farm. The soil was sieved through a 4 mm sieve and stored at 4 ° C. overnight. Sub-samples were taken to determine the moisture content, soil water holding capacity and initial inorganic N concentration. To measure moisture content, subsamples were dried at 105° C. for 24 hours.
Stock solutions of urea, DCD and heated treated DCD were prepared. The compositions were diluted in water to aid dispersion through the soil and the more accurate addition of small amounts of material. The DCD/fertiliser blends however were weighed and applied dry as the material was largely insoluble.
Each replicated treatment was added to 150 g of dry soil equivalent (195 g field moist soil) in a resealable plastic bag. Distilled water was added as necessary to increase the soil moisture to around 60% of water holding capacity. The contents of each bag were mixed thoroughly, and the bags sealed to include as much air as possible to ensure an aerobic environment was maintained. The bags were placed in an incubator set at 20°C. for the duration of the experiment (14 days).
Soil sub-samples were taken from the bags at 2, 5, 9 and 14 days after incubation commenced for ammonium and nitrate analysis. The equivalent of approximately 5 g dry weight of soil was weighed into 150 mL flasks, 50 mL of 2 M potassium chloride (KCl) was added and the flasks shaken for one hour using end-over-end shakers (Mulvaney, 1996). The extractant was filtered (Whatman #42 filter paper) before being frozen prior to analysis for nitrate-N and ammoniumn-N using a Skalar segmented flow analyser. The data were statistically analysed using the ANOVA directive of GenStat (10th Edition) and L.S.D. (least significant difference) were calculated.

The mark [1] stands for this setting: Day 2, applied at 10 kg/ha (blends 10 kg DCD/ha equivalent).
[2] abbreviates: Day 5, applied at 10 kg/ha (blends 10 kg DCD/ha equivalent).
Where [3] appears, read: Day 9, applied at 10 kg/ha (blends 10 kg DCD/ha equivalent).
[4] abbreviates: Day 14, applied at 10 kg/ha (blends 10 kg DCD/ha equivalent).

Molecules are shown by their SMILES.

`N#CN=C(N)N` [DCD, dicyandiamide]: the “Average ammonium concentration in soil” value is given as 149.7 μg NH4—N/g soil (Day 2, applied at 1 kg/ha); 159.7 μg NH4—N/g soil under setting [1]; 81.6 μg NH4—N/g soil (Day 5, applied at 1 kg/ha); 106.2 μg NH4—N/g soil under setting [2]; 23.2 μg NH4—N/g soil (Day 9, applied at 1 kg/ha); 63.1 μg NH4—N/g soil under setting [3]. Also, the “Average ammonium concentration in soil” value came out at 1.3 μg NH4—N/g soil (Day 14, applied at 1 kg/ha) and 22.1 μg NH4—N/g soil under setting [4]. The “Average nitrate concentration in soil” value is, setting by setting: (Day 2, applied at 1 kg/ha) 55.8 μg NO3—N/g soil; under setting [1], 48.1 μg NO3—N/g soil; (Day 5, applied at 1 kg/ha) 139.4 μg NO3—N/g soil; under setting [2], 108.7 μg NO3—N/g soil; (Day 9, applied at 1 kg/ha) 193.7 μg NO3—N/g soil; under setting [3], 148.1 μg NO3—N/g soil. The “Average nitrate concentration in soil” value by setting is: (Day 14, applied at 1 kg/ha) 233.8 μg NO3—N/g soil; under setting [4], 216.6 μg NO3—N/g soil.
